Our source for the IC50, AC50 and EC50 values is ChEMBL document CHEMBL1201862, “PubChem BioAssay data set” (2004).

The target in test [1] is T1, Tyrosine-protein phosphatase non-receptor type 7 (Homo sapiens, UniProt P35236).
T1 sequence (P35236 whole entry): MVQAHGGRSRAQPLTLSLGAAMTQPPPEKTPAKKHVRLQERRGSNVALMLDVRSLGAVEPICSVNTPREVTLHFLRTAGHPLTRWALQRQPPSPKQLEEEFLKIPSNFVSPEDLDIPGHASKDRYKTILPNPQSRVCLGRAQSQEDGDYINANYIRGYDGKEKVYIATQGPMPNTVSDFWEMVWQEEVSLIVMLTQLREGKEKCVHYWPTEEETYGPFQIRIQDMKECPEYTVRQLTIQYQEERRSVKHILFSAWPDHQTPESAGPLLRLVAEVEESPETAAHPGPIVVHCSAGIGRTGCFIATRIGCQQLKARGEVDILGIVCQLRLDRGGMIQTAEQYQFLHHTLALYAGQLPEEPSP
The experiment in a line: inhibitors of human HePTP phosphatase, […], biochemical, absorbance, leukemia target (AID 521). It is filed as functional.

The next test addresses Cytochrome P450 2D6 (Homo sapiens, UniProt P10635).
The next test has as its target T2, Leucine aminopeptidase (Plasmodium falciparum 3D7, UniProt Q8IL11).
T2 sequence (Q8IL11 whole entry): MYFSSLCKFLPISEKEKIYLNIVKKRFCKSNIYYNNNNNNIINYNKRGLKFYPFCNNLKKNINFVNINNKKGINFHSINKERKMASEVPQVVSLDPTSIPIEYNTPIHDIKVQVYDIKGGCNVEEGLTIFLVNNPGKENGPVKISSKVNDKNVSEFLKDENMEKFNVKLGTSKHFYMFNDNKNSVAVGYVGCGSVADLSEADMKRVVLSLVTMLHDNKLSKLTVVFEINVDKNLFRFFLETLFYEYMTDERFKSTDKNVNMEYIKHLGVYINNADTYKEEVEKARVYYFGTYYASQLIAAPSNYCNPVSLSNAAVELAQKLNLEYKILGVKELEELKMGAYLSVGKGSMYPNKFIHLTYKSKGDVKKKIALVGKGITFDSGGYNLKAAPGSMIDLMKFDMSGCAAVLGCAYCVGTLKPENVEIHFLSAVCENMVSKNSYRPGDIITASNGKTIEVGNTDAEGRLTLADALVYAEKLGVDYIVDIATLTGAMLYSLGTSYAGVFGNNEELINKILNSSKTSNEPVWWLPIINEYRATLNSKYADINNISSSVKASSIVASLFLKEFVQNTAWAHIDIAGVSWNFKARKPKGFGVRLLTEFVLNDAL
The test can be described thus: P. falciparum M17LAP inhibitors, primary screen, biochemical, fluorogenic H-Leu-NHMec substrate, 1536-well (AID 1619). Type of test: functional.

In the next test the target is T3, Aspartyl aminopeptidase (Plasmodium falciparum 3D7, UniProt Q8I2J3).
T3 sequence (Q8I2J3 whole entry): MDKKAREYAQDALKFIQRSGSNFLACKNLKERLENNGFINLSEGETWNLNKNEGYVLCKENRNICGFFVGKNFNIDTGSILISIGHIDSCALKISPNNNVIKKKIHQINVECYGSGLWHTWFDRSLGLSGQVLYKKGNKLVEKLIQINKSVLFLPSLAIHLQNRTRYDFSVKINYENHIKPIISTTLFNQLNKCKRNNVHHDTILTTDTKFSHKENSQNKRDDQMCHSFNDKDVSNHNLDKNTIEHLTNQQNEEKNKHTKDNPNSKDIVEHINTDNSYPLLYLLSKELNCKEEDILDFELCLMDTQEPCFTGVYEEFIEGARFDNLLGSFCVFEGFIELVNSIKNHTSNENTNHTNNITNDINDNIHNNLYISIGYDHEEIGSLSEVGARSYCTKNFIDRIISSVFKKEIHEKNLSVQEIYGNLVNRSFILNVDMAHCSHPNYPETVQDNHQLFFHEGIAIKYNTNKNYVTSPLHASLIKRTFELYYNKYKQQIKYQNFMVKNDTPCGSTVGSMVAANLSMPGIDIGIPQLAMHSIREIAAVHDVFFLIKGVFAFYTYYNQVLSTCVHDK
The experiment in a line: Counterscreen for inhibitors of M1 and M17 aminopeptidases: QFRET-based biochemical high throughput dose response assay for inhibitors of the Plasmodium falciparum M18 Aspartyl Aminopeptidase (PFM18AAP). [Related PubChem assays: 1619 (Screening assay (M17LAP inhibitors).), 1445 (Screening assay (M1AAP inhibitors).)].

The target of another test is Procathepsin L (Homo sapiens, UniProt P07711). The experiment in a line: cathepsin L inhibitors, dose response, counter-screen for M1/M17 aminopeptidase inhibitor project, biochemical, QFRET, 1536-well (AID 2214).
Procathepsin L, sequence (P07711 whole entry): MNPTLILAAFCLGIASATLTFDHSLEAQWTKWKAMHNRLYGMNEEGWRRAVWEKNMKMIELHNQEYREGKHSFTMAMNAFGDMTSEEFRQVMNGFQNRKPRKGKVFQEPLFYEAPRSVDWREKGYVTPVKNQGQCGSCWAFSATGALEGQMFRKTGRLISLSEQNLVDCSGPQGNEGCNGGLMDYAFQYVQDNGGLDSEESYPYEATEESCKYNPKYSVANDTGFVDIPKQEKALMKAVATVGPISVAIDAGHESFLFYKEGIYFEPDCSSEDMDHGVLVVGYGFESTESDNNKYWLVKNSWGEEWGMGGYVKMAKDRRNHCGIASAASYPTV
A short description of test [2]: growth suppression of PTEN-null colon cells, dose response, cell-based, HCT116 PTEN knockout (AID 1047).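 Also: HCT116 colon tumor cells with PTEN knocked out; cells exposed to compound for 60 hours before readout; potency for loss of cell viability measured by luminescence.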 It is filed as functional.
The nature of test [3]: growth suppression of beta-catenin-knockout colon cells, dose response, cell-based, HCT116, human colon tumor (AID 1045).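 Also: HCT116 colon tumor cells with beta catenin knocked out; cells exposed to compound for 60 hours.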 Type of test: functional.
Test [4] in a line: inhibitors of PGC1a acetylation in cells, dose response, cell-based, cherry-picked samples (AID 720514).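 Also: potency may reflect raised or lowered acetylation signal.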 Type of test: functional.
The target of the next test is Estrogen receptor beta (Homo sapiens, UniProt Q92731).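 Also: recombinant ER-beta bound to coactivator SRC1 peptide in presence of estradiol agonist; inhibitors block coactivator peptide binding and lower the FRET signal.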
Estrogen receptor beta, sequence (Q92731 whole entry): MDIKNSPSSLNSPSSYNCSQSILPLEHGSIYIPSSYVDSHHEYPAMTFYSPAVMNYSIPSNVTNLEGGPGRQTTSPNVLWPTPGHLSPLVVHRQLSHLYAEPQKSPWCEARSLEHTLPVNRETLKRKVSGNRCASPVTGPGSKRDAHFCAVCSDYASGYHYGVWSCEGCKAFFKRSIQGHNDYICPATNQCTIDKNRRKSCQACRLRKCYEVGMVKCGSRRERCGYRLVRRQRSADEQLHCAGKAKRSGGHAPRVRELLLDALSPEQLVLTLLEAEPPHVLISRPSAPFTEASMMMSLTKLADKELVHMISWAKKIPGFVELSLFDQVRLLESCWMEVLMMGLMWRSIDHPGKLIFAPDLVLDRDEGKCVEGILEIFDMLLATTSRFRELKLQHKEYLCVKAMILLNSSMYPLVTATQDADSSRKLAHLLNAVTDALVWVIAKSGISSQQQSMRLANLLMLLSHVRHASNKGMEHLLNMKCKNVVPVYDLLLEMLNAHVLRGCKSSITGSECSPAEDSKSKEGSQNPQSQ
The target in test [5] is T4, Rac GTPase-activating protein 1 (Homo sapiens, UniProt Q9H0H5).
T4 sequence (Q9H0H5 whole entry): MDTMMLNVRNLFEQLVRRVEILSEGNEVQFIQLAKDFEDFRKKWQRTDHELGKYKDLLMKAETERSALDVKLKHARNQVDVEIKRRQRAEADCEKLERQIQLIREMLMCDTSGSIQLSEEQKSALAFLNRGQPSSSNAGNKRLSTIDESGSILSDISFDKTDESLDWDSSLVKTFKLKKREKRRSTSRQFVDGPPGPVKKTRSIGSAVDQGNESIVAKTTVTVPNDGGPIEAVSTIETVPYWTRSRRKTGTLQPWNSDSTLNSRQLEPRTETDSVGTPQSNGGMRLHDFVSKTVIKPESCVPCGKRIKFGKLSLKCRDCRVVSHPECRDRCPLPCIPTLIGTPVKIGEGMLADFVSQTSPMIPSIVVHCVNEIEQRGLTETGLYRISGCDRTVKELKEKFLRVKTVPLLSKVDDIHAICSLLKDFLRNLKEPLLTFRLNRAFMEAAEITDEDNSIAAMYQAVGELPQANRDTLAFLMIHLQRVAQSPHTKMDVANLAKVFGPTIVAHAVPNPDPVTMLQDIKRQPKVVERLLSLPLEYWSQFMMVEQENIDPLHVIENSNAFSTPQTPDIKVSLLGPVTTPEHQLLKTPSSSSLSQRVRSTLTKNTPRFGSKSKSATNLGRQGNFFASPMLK
The experiment in a line: MgcRacGAP GTPase-activating activity inhibitors, confirmation, biochemical, ADP Hunter fluorescence, primary and confirmatory (AID 624330). It is filed as functional.

The nature of test [6]: inhibitors of Vif binding to APOBEC3G peptide, primary screen, biochemical, TR-FRET, GST-Vif 1-94, biotin-A3G peptide, dose response retest (AID 1117319).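 Also: TR-FRET signal of purified GST-Vif binding a biotinylated A3G peptide; inhibitors lower the FRET signal by blocking Vif and A3G binding.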 Type of test: functional.
In test [7] the target is NAD-dependent protein deacylase sirtuin-5, mitochondrial (Homo sapiens, UniProt Q9NXA8). The experiment in a line: SIRT5 desuccinylase inhibitors, dose response, biochemical, fluorescence imaging, cherry-pick, set 5 (AID 720591).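 Also: desuccinylation of succinyl peptide AMC substrate read as fluorescence after trypsin release; potency of inhibitors that lower fluorescence and may act on trypsin instead.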
NAD-dependent protein deacylase sirtuin-5, mitochondrial, sequence (Q9NXA8 whole entry, the tested form may be a part): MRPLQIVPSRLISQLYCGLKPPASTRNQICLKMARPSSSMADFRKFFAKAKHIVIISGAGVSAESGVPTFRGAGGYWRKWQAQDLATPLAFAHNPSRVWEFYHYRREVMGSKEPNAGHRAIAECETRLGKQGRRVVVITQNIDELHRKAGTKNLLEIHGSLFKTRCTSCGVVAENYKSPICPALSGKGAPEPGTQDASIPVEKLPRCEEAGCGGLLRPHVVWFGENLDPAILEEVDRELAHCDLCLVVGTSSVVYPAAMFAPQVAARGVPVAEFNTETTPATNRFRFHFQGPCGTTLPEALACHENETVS
Test [8] deals with T5, Fatty acid synthase (Homo sapiens, UniProt P49327). The test can be described thus: FAS thioesterase domain inhibitors, dose response, biochemical, endpoint fluorescence intensity, uHTS hits (AID 624327).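 Also: fluorescence from hydrolysis of an O-methyl fluorescein acyl ester substrate by the enzyme.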 It is filed as functional.
T5 sequence (P49327 whole entry, the tested form may be a part): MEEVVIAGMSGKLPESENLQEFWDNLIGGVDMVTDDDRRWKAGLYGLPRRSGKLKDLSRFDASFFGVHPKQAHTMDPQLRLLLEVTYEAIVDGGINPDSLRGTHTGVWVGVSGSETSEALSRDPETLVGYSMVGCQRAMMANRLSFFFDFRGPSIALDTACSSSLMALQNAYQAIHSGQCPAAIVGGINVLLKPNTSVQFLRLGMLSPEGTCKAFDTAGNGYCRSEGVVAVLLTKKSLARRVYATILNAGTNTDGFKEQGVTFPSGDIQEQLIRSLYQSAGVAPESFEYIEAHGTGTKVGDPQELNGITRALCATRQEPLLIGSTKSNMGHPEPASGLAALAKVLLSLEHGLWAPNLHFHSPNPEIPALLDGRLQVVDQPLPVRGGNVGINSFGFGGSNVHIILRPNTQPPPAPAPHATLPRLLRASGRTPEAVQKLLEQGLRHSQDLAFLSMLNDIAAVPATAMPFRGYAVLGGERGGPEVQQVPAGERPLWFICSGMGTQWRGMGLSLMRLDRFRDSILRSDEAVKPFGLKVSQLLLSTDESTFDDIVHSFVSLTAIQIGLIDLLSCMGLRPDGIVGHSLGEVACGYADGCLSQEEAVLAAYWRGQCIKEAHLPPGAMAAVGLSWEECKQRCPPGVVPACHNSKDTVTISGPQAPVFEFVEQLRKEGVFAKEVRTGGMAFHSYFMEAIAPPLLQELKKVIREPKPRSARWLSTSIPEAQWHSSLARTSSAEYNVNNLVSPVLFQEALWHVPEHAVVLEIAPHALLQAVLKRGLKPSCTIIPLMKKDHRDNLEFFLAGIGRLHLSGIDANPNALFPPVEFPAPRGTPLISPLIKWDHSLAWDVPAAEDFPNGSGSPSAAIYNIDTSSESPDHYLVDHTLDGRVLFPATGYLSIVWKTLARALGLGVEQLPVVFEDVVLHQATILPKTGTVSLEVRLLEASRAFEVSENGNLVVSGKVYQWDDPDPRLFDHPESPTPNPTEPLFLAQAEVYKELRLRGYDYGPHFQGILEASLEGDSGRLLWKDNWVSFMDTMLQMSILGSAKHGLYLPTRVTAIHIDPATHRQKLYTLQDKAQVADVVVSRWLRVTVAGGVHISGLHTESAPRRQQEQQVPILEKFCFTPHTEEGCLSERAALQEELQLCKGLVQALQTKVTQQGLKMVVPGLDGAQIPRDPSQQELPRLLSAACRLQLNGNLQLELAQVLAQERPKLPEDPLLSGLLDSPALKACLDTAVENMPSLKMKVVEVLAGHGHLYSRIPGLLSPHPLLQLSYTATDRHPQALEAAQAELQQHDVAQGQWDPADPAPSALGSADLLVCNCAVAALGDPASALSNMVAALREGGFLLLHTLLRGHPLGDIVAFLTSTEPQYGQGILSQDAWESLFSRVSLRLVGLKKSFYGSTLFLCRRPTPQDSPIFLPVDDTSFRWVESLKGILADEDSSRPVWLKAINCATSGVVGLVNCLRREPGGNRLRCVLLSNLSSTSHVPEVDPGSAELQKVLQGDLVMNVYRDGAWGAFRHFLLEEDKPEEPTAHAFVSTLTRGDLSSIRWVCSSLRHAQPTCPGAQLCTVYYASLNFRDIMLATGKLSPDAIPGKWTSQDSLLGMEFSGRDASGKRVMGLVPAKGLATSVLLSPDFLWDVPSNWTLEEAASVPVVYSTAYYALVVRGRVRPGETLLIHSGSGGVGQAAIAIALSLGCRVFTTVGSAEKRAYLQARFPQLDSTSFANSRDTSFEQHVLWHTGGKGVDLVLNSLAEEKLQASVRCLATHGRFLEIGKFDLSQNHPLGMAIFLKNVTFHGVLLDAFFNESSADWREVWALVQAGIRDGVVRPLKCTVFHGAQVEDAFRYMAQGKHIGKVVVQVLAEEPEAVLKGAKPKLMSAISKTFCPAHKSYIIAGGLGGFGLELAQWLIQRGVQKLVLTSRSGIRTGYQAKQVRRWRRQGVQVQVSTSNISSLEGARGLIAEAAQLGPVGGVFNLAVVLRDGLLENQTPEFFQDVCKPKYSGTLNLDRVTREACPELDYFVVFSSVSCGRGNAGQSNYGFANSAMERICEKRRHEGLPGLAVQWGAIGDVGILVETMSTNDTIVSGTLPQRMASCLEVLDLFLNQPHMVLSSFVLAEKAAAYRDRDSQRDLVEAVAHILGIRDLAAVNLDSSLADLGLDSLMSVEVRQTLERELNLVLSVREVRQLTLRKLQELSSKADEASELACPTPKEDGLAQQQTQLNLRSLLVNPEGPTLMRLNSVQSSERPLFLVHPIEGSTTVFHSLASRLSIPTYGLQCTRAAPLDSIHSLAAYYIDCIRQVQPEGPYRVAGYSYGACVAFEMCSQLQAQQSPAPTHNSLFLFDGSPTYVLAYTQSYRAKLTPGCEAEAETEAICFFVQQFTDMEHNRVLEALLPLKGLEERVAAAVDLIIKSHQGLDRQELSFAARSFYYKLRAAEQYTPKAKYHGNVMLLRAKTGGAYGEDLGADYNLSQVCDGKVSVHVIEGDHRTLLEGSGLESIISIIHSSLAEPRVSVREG
Test [9] deals with T5, Fatty acid synthase. The test can be described thus: FAS thioesterase domain inhibitors, dose response, biochemical, kinetic fluorescence intensity (AID 624326).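 Also: rate of fluorescence rise from hydrolysis of a fluorogenic O-methyl fluorescein ester substrate.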 Type of test: functional.
Test [10] deals with Disintegrin and metalloproteinase domain-containing protein 17 (Homo sapiens, UniProt P78536). The experiment in a line: ADAM17 protease inhibitors, dose response, counter-screen for ADAM10 exosite inhibitor project, biochemical, quenched FRET substrate (AID 743253).
Disintegrin and metalloproteinase domain-containing protein 17, sequence (P78536 whole entry, the tested form may be a part): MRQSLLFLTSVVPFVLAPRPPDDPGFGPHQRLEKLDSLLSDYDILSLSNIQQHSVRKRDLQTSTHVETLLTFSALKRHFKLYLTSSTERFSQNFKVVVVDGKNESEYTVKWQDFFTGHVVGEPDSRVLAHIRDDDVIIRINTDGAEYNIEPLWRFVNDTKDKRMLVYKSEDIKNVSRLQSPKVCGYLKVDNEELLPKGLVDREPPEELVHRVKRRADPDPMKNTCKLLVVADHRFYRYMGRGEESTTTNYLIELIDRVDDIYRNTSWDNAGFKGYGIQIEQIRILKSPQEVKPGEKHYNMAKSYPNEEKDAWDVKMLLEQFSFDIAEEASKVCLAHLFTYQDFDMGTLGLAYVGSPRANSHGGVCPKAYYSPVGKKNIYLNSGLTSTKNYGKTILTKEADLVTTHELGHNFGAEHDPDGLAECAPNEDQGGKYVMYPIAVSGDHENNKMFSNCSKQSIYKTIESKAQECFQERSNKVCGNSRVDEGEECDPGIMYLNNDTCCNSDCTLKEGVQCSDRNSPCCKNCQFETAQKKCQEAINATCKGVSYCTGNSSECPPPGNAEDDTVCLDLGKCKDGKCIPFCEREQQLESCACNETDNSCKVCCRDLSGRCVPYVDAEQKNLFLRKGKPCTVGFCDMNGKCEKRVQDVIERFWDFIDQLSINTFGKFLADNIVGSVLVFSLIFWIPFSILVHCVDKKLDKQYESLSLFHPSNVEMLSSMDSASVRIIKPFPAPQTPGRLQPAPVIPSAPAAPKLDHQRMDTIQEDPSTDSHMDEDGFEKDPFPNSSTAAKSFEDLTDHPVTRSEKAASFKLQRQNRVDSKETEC
Test [11] deals with T6, RNA-editing ligase 1, mitochondrial (Trypanosoma brucei brucei, UniProt P86926).
T6 sequence (P86926 whole entry): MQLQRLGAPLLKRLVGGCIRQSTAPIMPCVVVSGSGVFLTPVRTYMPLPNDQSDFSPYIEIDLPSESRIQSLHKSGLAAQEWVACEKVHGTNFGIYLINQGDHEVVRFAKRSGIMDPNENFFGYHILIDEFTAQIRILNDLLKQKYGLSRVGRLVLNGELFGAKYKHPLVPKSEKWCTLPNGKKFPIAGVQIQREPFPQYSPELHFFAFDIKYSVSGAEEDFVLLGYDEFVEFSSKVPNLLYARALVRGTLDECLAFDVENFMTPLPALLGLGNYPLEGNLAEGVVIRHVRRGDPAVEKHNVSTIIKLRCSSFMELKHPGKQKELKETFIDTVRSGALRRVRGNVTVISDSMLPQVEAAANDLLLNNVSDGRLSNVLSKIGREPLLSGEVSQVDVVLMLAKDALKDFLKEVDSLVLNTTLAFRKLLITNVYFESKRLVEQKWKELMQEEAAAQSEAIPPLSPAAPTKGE
The experiment in a line: TbREL1 ligase inhibitors, dose response, biochemical, fluorescence, Trypanosoma brucei (AID 1117295). It is filed as functional.

Test [12] is described as follows: cytotoxicity in HPDE-C7 cells, cell-based, fluorescence, HTS (AID 430). It is filed as functional. Conditions: Homo sapiens.
A short description of test [13]: cytotoxicity in KRAS-transformed pancreatic duct cells, primary screen, cell-based, fluorescence, HTS (AID 431).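 Also: cell line used: HPDE-C7K.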 Conditions: Homo sapiens. Type of test: functional.

Active and inactive are the calls of the source. Bounds are passed on as bounds.

Cytochrome P450 2D6, sequence (P10635 whole entry): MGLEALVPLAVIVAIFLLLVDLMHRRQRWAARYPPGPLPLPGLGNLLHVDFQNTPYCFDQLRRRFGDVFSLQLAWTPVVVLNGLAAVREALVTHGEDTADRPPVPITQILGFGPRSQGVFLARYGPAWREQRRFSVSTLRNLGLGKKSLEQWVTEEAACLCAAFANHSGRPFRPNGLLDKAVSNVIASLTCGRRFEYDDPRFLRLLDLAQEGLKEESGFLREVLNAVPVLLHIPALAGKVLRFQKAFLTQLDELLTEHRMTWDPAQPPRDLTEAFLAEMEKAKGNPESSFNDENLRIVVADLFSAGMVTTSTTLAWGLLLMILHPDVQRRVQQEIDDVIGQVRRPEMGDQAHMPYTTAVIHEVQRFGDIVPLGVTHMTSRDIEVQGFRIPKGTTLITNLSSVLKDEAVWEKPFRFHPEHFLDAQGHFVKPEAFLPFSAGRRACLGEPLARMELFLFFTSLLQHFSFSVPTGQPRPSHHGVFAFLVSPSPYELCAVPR

For the compound `Cc1ccc(C(=O)c2c[nH]nc2-c2cc(Cl)ccc2O)cc1`, the IC50 in test [1] is listed as > 100 µM (not active). Also, the AC50 at Cytochrome P450 2D6 was 28.2 µM (inconclusive).

For the compound `CCc1cc2cc(OC)ccc2nc1SCC(=O)Nc1cc(OC)c(OC)cc1C(=O)O`, the IC50 on Leucine aminopeptidase is < 1 µM (active); on Aspartyl aminopeptidase, > 73.5 µM (not active); against Procathepsin L, > 59.6 µM (not active).

As for `CC(C)(C)n1nnnc1C(c1ccc(C#N)cc1)N1CCCC2(CCCCC2)C1` (stereo not given), the IC50 in test [1] is given as > 100 µM (not active).

Consider `Cc1cc(C(=O)COC(=O)c2ccc[nH]c2=O)c(C)n1-c1ccc(Br)cc1`, for which the IC50 is 2.74 µM (active) on Leucine aminopeptidase, > 73.5 µM (not active) against Aspartyl aminopeptidase and > 59.6 µM (not active) against Procathepsin L.

As to `Cc1ccccc1-n1nnnc1Sc1nnnn1-c1ccccc1`, the figures for the EC50 in test [2] and in test [3] were 4.94 µM (active) and 4.42 µM (active), respectively. In test [4], the AC50 is 10.4 µM (active).

Regarding `CCc1cc2c(=O)n(CC)c(SC(C)C(=O)Nc3c(C)n(C)n(-c4ccccc4)c3=O)nc2s1` (stereo not given), the IC50 at Estrogen receptor beta is on record as > 50 µM (not active).

Turning to `CC1CCc2sc(NC(=O)C3CC(Cl)=CCC3C(=O)O)c(C#N)c2C1` (stereo not given), the IC50 was < 1 µM (active) on Leucine aminopeptidase, > 73.5 µM (not active) against Aspartyl aminopeptidase and > 59.6 µM (not active) against Procathepsin L.

As for `CCOc1ccc(C2NC(=O)C(C#N)=C(S)N2c2ccc(OC)cc2)cc1OC` (stereo not given), the IC50 is 134 µM (active) in test [5] and > 100 µM (active) in [6].

Take `COc1ccc(OC)c(C2Nc3ccccc3N=C3CC(C)(C)CC(O)=C32)c1` (stereo not given): the AC50 in test [7] is > 30 µM (inactive).

Turning to `CN(Cc1ccccc1)C(c1ccnc2ccccc12)c1nnnn1-c1ccc2c(c1)OCCO2` (stereo not given), the AC50 in [7] is 14.2 µM (active).

Consider `CCN(CC)CCNc1ccnc2cc(Cl)ccc12`, for which, in test [1], the IC50 is recorded as > 100 µM (not active).

For `Fc1c(F)c(C(F)(F)F)c(F)c(F)c1N/N=C\c1cccs1`, the results for the EC50 in test [2] and in test [3] were 109 µM (active) and 43.1 µM (active), respectively. For the same compound, the figures for the IC50 (at Fatty acid synthase [8]; on Fatty acid synthase [9]; in test [10]) were 10.4 µM (active), 10.2 µM (active) and > 69.5 µM (inactive), respectively.

In the case of `COC(=O)C1=C(C)N(Cc2ccccc2C(F)(F)F)C(NCc2ccc3c(c2)OCO3)=NC1c1cccc(Cl)c1` (stereo not given), the IC50 in [11] is > 96.6 µM (inactive).

For the compound `COC(=O)C1=C(C)N(Cc2ccccc2C(F)(F)F)C(NCc2ccccc2)=NC1c1ccc(Cl)cc1` (stereo not given), the IC50 in [11] was > 96.6 µM (inactive).

Regarding `CCc1ccc(C(=O)CSC2=C(C#N)C(c3ccco3)C(C(C)=O)=C(C)N2)cc1` (stereo not given), the EC50 in test [12] is 14.4 µM (active); in test [13] it was 15.7 µM (active).
